In data set [1] the test system is ras-transformed NIH 3T3 cells. Briefly: Growth inhibition of ras-transformed NIH 3T3 cells (modified MTT assay, 48 h). The class given is cell-based. As to conditions: for Selective toxicity (SI, IC50 wild type/IC50 ras-transformed): IC50 wild type/IC50 ras-transformed cells; for IC50: Mus musculus, NIH3T3; for Relative activity: Ratio of the IC50 of azatyrosine to the IC50 of test compound. The procedure:
(§1) Inhibition on the Growth of wild type and ras-transformed NIH 3T3 cells
(§2) The compounds of formula (I) were screened on wild type and ras-transformedNIH 3T3 cells for inhibitory activity. Screening was carried out in 96-well plate and the cells, with a density of 1500-2500 cells/well, were cultured in Dulbecco's modified Eagle's medium containing 10% fetal bovine serum at 37° C. under an atmosphere of 7.5% CO2 in air. Growth curve for each cell line was established. The DMSO solution of each compound was incubated with the cell for 48 hours. Procedure of Hansen's MTT assay method was modified for estimating the cell number (Hansen, B. M., Nielson, S. E., Berg, K. J. Immunol. Methods 1989, 119, 203.). The absorption of generated formazan's blue at l570 nm was recorded with ELISA reader. The number of surviving cells was determined from a calibration curve derived by correlating the absorption to the cell number determined from a hemacytometer. At least three experiments were carried out for each compound and IC50 was calculated using sigmoidal regression (Parellada, J., Guinea, M. J. Nat. Prod., 1995, 58, 823.). SI, the selectivity of growth inhibition of each test compound, was defined as the ratio of IC50 against wild type to IC50 against ras-transformed cell lines.
Background: Tetrazolium assays rely on reduction of a dye to a coloured formazan, in cell work by metabolically active cells.

The subject of data set [2] is wild type NIH 3T3 cells. Briefly: Growth inhibition of wild type NIH 3T3 cells (modified MTT assay, 48 h). The class given is cell-based. As to conditions: Mus musculus, NIH3T3, mean ± SD of 3-5 experiments. The protocol:
as §1, §2

The subject of data set [3] is revertant clone on nude mice. As to conditions: some of the revertant clone; cited from earlier work.
Data set [4] relates to ras-transformed tumor cells. As to conditions: relatively high concentrations up to; cited from earlier work.
Data set [5] relates to mice harboring a normal c-Ha-ras gene. As to conditions: 7,12-dimethylbenz[a]anthracene or methylnitrosourea-induced; cited from earlier work.
The subject of data set [6] is wild type cells. As to conditions: cited from earlier work.
Data set [7] has as its system NIH 3T3 cells transformed by c-Ha-ras, c-Ki-ras, N-ras, or c-raf oncogene. As to conditions: cited from earlier work.
The mark [8] stands for this setting: ras-transformed NIH 3T3, 48 hours, mean ± SD of 3-5 experiments, read-out: IC50 ras-transformed.

Molecules are shown by their SMILES. Several values for one entry are separate records, joined by “and”; a condition that tells them apart may be missing. Equal entries are not always repeated. Where two headings read alike, the source gives them in different places.

In the case of `CC(C)(C)OC(=O)NC(Cc1ccc(OCc2ccccc2)cn1)C(N)=O` (stereo not drawn) [Compound 7, 3-(5-benzyoxypyridin-2-yl)-2-t-butoxylcarbonylamino NH3], in data set [1], the “Selective toxicity (SI, IC50 wild type/IC50 ras-transformed)” value (shortened to “Selective toxicity”) is reported as 23.5. Moreover, the IC50 in data set [1] (setting [8]) was found to be 73.1 ± 41.8 µM; in data set [2] it was 1716 ± 10.4 µM. Also, the Relative activity in data set [1] (ras-transformed NIH 3T3) worked out at 103.

Regarding `CCCNC(=O)C(Cc1ccc(OCc2ccccc2)cn1)NC(=O)OC(C)(C)C` (stereo not drawn) [Compound 8, propyl 3-(5-benzyoxypyridin-2-yl)-2-t-butoxylcarbonylamino propanamide], the “Selective toxicity” value in data set [1] came out at 28.4. The IC50 is 34.1 ± 0.8 µM in data set [1] (setting [8]) and 989 ± 707 µM in data set [2]. In addition, the Relative activity in data set [1] (ras-transformed NIH 3T3) was determined as 217.

In the case of `C=CCNC(=O)C(Cc1ccc(OCc2ccccc2)cn1)NC(=O)OC(C)(C)C` (stereo not drawn) [Compound 9], the “Selective toxicity” value in data set [1] worked out at 2.9. The IC50 in data set [1] (setting [8]) was determined as 74.1 ± 15.2 µM; in data set [2], 213 ± 112 µM. The Relative activity in data set [1] (ras-transformed NIH 3T3) came to 102.

Regarding `C#CCNC(=O)C(Cc1ccc(OCc2ccccc2)cn1)NC(=O)OC(C)(C)C` (stereo not drawn) [Compound 10], in data set [1], the “Selective toxicity” value is recorded as 9.0. The results for the IC50 in data set [1] (setting [8]) and in data set [2] were 45.1 ± 1.65 µM and 410 ± 247 µM, respectively. In data set [1] (ras-transformed NIH 3T3), the Relative activity amounted to 165.

With `CC(C)(C)OC(=O)NC(Cc1ccc(OCc2ccccc2)cn1)C(=O)NC1CC1` (stereo not drawn) [Compound 11], the “Selective toxicity” value in data set [1] is reported as 18.4. Further, the IC50 was 104 ± 83.8 µM in data set [1] (setting [8]) and 1930 ± 899 µM in data set [2]. Besides, the Relative activity in data set [1] (ras-transformed NIH 3T3) is 72.

In the case of `CC(C)(C)OC(=O)NC(Cc1ccc(OCc2ccccc2)cn1)C(=O)NC1CCCCC1` (stereo not drawn) [Compound 12, N-cyclohexyl 3-(5-benzyoxypyridin-2-yl)-2-t-butoxylcarbonylaminopropanamide], the “Selective toxicity” value in data set [1] was 138 and 138.5; in data set [1] (listed as compound 12) it was 138.5. In addition, the IC50 in data set [1] (setting [8]) stood at 16.1 ± 2.2 µM; in data set [1] (ras-transformed NIH 3T3, read-out: IC50) it was 16.5 ± 2.2 µM; in data set [2], 2280 ± 1760 µM. Also, the Relative activity in data set [1] (ras-transformed NIH 3T3) worked out at 458. For the same compound, in data set [1] (ras-transformed NIH 3T3), the “IC50 fold lower than that of azatyrosine” value turned out to be 458 fold.

As to `CC(C)(C)OC(=O)NC(Cc1ccc(OCc2ccccc2)cn1)C(=O)N1CCCCC1` (stereo not drawn) [Compound 13], the “Selective toxicity” value in data set [1] stood at 1.8. The IC50 in data set [1] (setting [8]) is 42.1 ± 3.9 µM; in data set [2], 74.8 ± 18.7 µM. Also, in data set [1] (ras-transformed NIH 3T3), the Relative activity was 180.

Take `CC(C)(C)OC(=O)NC(Cc1ccc(OCc2ccccc2)cn1)C(=O)N1CCCC1` (stereo not drawn) [Compound 14]: the “Selective toxicity” value in data set [1] was 2.5. The IC50 in data set [1] (setting [8]) worked out at 59.1 ± 17.8 µM; in data set [2], 148 ± 12.5 µM. In addition, the Relative activity in data set [1] (ras-transformed NIH 3T3) was determined as 127.

Regarding `CC(C)(C)OC(=O)NC(Cc1ccc(OCc2ccccc2)cn1)C(=O)N1CCSCC1` (stereo not drawn) [Compound 15], the “Selective toxicity” value in data set [1] is 3.1. The values for the IC50 in data set [1] (setting [8]) and in data set [2] were 50.1 ± 1.04 µM and 154 ± 3.9 µM, respectively. Moreover, the Relative activity in data set [1] (ras-transformed NIH 3T3) was 150.

`N[C@@H](Cc1ccc(O)cn1)C(=O)O` [azatyrosine, L-b-(5-hydroxy-2-pyridyl)alanine]: in data set [3], the “tumorigenicity of revertant clones” value is given as “complete loss of tumorigenicity”. The “concentration necessary for the activity” value in data set [4] was 1 to 2 mM. For the same compound, the “inhibition of induced carcinogenesis” value in data set [5] is “inhibits”. The “effect on growth of wild type cells” value in data set [6] is listed as “essentially no effect”. For the same compound, the “Selective toxicity” value in data set [1] is listed as 1.4. For the same compound, the IC50 amounted to 7550 ± 418 µM in data set [1] (setting [8]) and 10800 ± 472 µM in data set [2]. For the same compound, the “reversion of surviving transformed cells” value in data set [7] (azatyrosine-treated transformed cells that survived) is listed as “reverted to an apparently normal phenotype”. Besides, in data set [7], the “suppression of growth of transformed NIH 3T3 cells” value is “suppress the growth”.

One may read the IC50 as the point on the concentration scale where inhibition reaches its midpoint.

The values above are taken from patent US5869507A, “Azatyrosine analogues” (Wang; Hui-Po, priority 1997, dated 1999).
